# Source: patent US12371454B2, “Cyclic peptide compound having Kras inhibitory action” (priority 2019, dated 2025)
# pIC50: −log10 of the molar value. Starred links: 1 amine or outer side, 2 acyl side, 3 side chain; linkers in the order of their positions; H or OH if unused. Positions of bridges follow the written chain, without caps; N, C: chain ends. Non-standard residues stand in square brackets, D forms with d. Residues, ends and D or L forms follow the SMILES beside them. *: point of attachment. hPhe(3-Cl-4-CF3) = N[C@@H](CCc1ccc(C(F)(F)F)c(Cl)c1)C(=O)O; hPhe(3-F,4-CF3) = N[C@@H](CCc1ccc(C(F)(F)F)c(F)c1)C(=O)O; hPhe(4-CF3) = N[C@@H](CCc1ccc(C(F)(F)F)cc1)C(=O)O; X46 = COc1cncc(C[C@@H](C(=O)[*:2])N(C)[*:1])c1; Thiomorpholino(1,1-dioxo) = O=S1(=O)CCN(*)CC1; NMePhe(4-Cl) = CN[C@@H](Cc1ccc(Cl)cc1)C(=O)O; NMePhe(2-CN) = CN[C@@H](Cc1ccccc1C#N)C(=O)O; NMeNle(6-CHF2) = CN[C@@H](CCCCC(F)F)C(=O)O; NMedβ3hAla = C[C@H](CC(=O)[*:2])N(C)[*:1]; NMeGly(cPent) = CN[C@H](C(=O)O)C1CCCC1; Phe(3-I) = N[C@@H](Cc1cccc(I)c1)C(=O)O; NMeCha = CN[C@@H](CC1CCCCC1)C(=O)O; Azetidine(3,3-F2) = FC1(F)CN(*)C1; NMeChg = CN[C@H](C(=O)O)C1CCCCC1; NMeF = CN[C@@H](Cc1ccccc1)C(=O)O; N(CH2CH2)2CF2 = FC1(F)CCN(*)CC1; NMeD = CN[C@@H](CC(=O)O)C(=O)O; NMeL = CN[C@@H](CC(C)C)C(=O)O; NMeV = CN[C@H](C(=O)O)C(C)C; d(β3hA) = C[C@@H](N)CC(=O)O; NMeA = CN[C@@H](C)C(=O)O; NMeAib = CNC(C)(C)C(=O)O; Nle = CCCC[C@H](N)C(=O)O; Piperidide = C1CCN(*)CC1; Pyrrolidide = C1CCN(*)C1; dNMeA = CN[C@H](C)C(=O)O; Ac5c = NC1(C(=O)O)CCCC1; Aze = O=C(O)[C@@H]1CCN1; Sar = CNCC(=O)O
# Target: T1, Kras and SOS1 (biotin-tagged human Kras loaded with GDP, His-tagged human SOS1) (Homo sapiens, UniProt P01116, G12D)
# T1 construct: made in house; host or cells: E. coli (stated for Kras only)
# Experiment: Protein-protein interaction inhibition between Kras and SOS1 (KrasGl2D-SOS PPI) using AlphaScreen
# Assay type: binding
# Details: AlphaScreen; biotin-tagged human Kras loaded with GDP, His-tagged human SOS1; read-out: KRAS G12D-SOS PPI IC50
# In short: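 Kras was produced in E. coli, purified, then loaded with GDP. It was paired via streptavidin acceptor beads with His-SOS1 held on nickel donor beads, and proximity signal at 520-620 nm was read after 680 nm illumination.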
# T1 sequence (P01116 1-188 isoform P01116-2 G12D): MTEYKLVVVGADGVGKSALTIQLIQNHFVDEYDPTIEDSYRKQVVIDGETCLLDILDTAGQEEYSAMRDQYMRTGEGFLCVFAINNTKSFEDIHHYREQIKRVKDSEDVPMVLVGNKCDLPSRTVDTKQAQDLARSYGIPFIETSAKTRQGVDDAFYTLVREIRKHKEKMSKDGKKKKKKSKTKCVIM
row,Compound,pIC50
1,"CC[C@H](C)[C@@H]1NC(=O)[C@H](CC(C)C)N(C)C(=O)C[C@@H](C(=O)N(C)C)N(C)C(=O)[C@H](C2CCCC2)N(C)C(=O)C2(CCCC2)NC(=O)[C@H](CC(=O)N2CC(F)(F)C2)N(C)C(=O)[C@H](CCc2ccc(C(F)(F)F)c(Cl)c2)NC(=O)CN(C)C(=O)[C@H](CC2CCCCC2)N(C)C(=O)[C@@H]2CCN2C(=O)[C@H](C)N(C)C1=O [Compound 761] ([NMeL]I[NMeA][Aze][NMeCha][Sar][hPhe(3-Cl-4-CF3)][NMeD](Azetidine(3,3-F2))[Ac5c][NMeGly(cPent)][NMeD]-NMe2; lactam N-11)",9.24
2,CCCC[C@@H]1NC(=O)C(C)(C)N(C)C(=O)[C@H](CCCC)NC(=O)[C@H](Cc2cccc(I)c2)NC(=O)CN(C)C(=O)[C@H](Cc2ccc(Cl)cc2)N(C)C(=O)CN(C)C(=O)CN(C)C(=O)[C@H]([C@@H](C)CC)NC(=O)[C@H](CC(C)C)N(C)C(=O)C[C@@H](C(=O)N2CCCCC2)N(C)C1=O [Compound 765] ([NMeL]I[Sar][Sar][NMePhe(4-Cl)][Sar][Phe(3-I)][Nle][NMeAib][Nle][NMeD]-Piperidide; lactam N-11),7.30
3,CC[C@H](C)[C@@H]1NC(=O)[C@H](CC(C)C)N(C)C(=O)C[C@@H](C)NC(=O)[C@H](C(C)C)N(C)C(=O)C2(CCCC2)NC(=O)[C@@H]2CCCN2C(=O)[C@H](CCc2ccc(C(F)(F)F)c(Cl)c2)NC(=O)CN(C)C(=O)[C@H](Cc2ccccc2C#N)N(C)C(=O)CN(C)C(=O)CN(C)C1=O [Compound 767] (cyclo([Ac5c][NMeV][d(β3hA)][NMeL]I[Sar][Sar][NMePhe(2-CN)][Sar][hPhe(3-Cl-4-CF3)]P)),7.62
4,CC[C@H](C)[C@@H]1NC(=O)[C@H](CC(C)C)N(C)C(=O)C[C@@H](C(=O)N2CCCCC2)N(C)C(=O)[C@H](C2CCCCC2)N(C)C(=O)C2(CCCC2)NC(=O)[C@H](Cc2cncc(OC)c2)N(C)C(=O)[C@H](CCc2ccc(C(F)(F)F)c(Cl)c2)NC(=O)CN(C)C(=O)[C@H](CC2CCCCC2)N(C)C(=O)[C@@H]2CCN2C(=O)CN(C)C1=O [Compound 770] ([NMeL]I[Sar][Aze][NMeCha][Sar][hPhe(3-Cl-4-CF3)][X46][Ac5c][NMeChg][NMeD]-Piperidide; lactam N-11),7.70
5,CC[C@H](C)[C@@H]1NC(=O)[C@H](C)N(C)C(=O)C[C@@H](C)NC(=O)[C@H](C(C)C)N(C)C(=O)C2(CCCC2)NC(=O)[C@@H]2CCCN2C(=O)[C@H](CCc2ccc(C(F)(F)F)c(Cl)c2)NC(=O)[C@@H](C)N(C)C(=O)[C@H](CC2CCCCC2)N(C)C(=O)CN(C)C(=O)CN(C)C1=O [Compound 773] (cyclo([Ac5c][NMeV][d(β3hA)][NMeA]I[Sar][Sar][NMeCha][dNMeA][hPhe(3-Cl-4-CF3)]P)),6.85
6,CC[C@H](C)[C@@H]1NC(=O)[C@H](CC(C)C)N(C)C(=O)C[C@@H](C)N(C)C(=O)[C@H](C2CCCC2)N(C)C(=O)C2(CCCC2)NC(=O)[C@H](CC(=O)N2CCC(F)(F)CC2)N(C)C(=O)[C@H](CCc2ccc(C(F)(F)F)c(Cl)c2)NC(=O)CN(C)C(=O)[C@H](CC2CCCCC2)N(C)C(=O)[C@@H]2CCN2C(=O)[C@H](C)N(C)C1=O [Compound 777] (cyclo([Ac5c][NMeGly(cPent)][NMedβ3hAla][NMeL]I[NMeA][Aze][NMeCha][Sar][hPhe(3-Cl-4-CF3)][NMeD](N(CH2CH2)2CF2))),6.48
7,CC[C@H](C)[C@@H]1NC(=O)[C@H](C)N(C)C(=O)C[C@@H](C(=O)N2CCCC2)NC(=O)[C@H](CC(C)C)N(C)C(=O)[C@H](CCCCC(F)F)N(C)C(=O)[C@H](CC(C)C)NC(=O)[C@H](CCc2ccc(C(F)(F)F)cc2)NC(=O)CN(C)C(=O)[C@H](Cc2ccc(Cl)cc2)N(C)C(=O)CN(C)C(=O)CN(C)C1=O [Compound 779] ([NMeA]I[Sar][Sar][NMePhe(4-Cl)][Sar][hPhe(4-CF3)]L[NMeNle(6-CHF2)][NMeL]D-Pyrrolidide; lactam N-11),6.80
8,"CC[C@H](C)[C@@H]1NC(=O)[C@H](CC(C)C)N(C)C(=O)C[C@@H](C(=O)N2CCS(=O)(=O)CC2)N(C)C(=O)[C@H](C2CCCC2)N(C)C(=O)C2(CCCC2)NC(=O)[C@H](CC(=O)N2CCC(F)(F)CC2)N(C)C(=O)[C@H](CCc2ccc(C(F)(F)F)c(Cl)c2)NC(=O)CN(C)C(=O)[C@H](CC2CCCCC2)N(C)C(=O)[C@@H]2CCN2C(=O)[C@H](C)N(C)C1=O [Compound 780] ([NMeL]I[NMeA][Aze][NMeCha][Sar][hPhe(3-Cl-4-CF3)][NMeD](N(CH2CH2)2CF2)[Ac5c][NMeGly(cPent)][NMeD]-{Thiomorpholino(1,1-dioxo)}; lactam N-11)",7.68
9,"CC[C@H](C)[C@@H]1NC(=O)[C@H](C)N(C)C(=O)C[C@@H](C)NC(=O)[C@H](C(C)C)N(C)C(=O)[C@H](Cc2ccccc2)N(C)C(=O)[C@H](CC(C)C)N(C)C(=O)[C@H](CCc2ccc(C(F)(F)F)c(F)c2)NC(=O)CN(C)C(=O)[C@H](Cc2ccc(Cl)cc2)N(C)C(=O)[C@@H]2CCN2C(=O)CN(C)C1=O [Compound 782] (cyclo([Aze][NMePhe(4-Cl)][Sar][hPhe(3-F,4-CF3)][NMeL][NMeF][NMeV][d(β3hA)][NMeA]I[Sar]))",7.68
